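Assay format: 96-well plates, 48-hour exposure. Abbreviation: GI50, concentration required for 50% inhibition of growth.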 The source made the active and inactive calls. Rule as the data show it: active = GI50 up to about 1.1 µM and inactive = higher.
Columns and labels:
Assay in all cases: NCI anticancer screen, dose series, 48 h
A549 = system: A549
ACHN = system: ACHN
CCRF-CEM = system: CCRF-CEM
DMS-273 = system: DMS-273
HCT-116 = system: HCT-116
HL-60 = system: HL-60
HOP-62 = system: HOP-62
HT-29 = system: HT-29
LOX IMVI = system: LOX IMVI
LXFL 529 = system: LXFL 529
M14 = system: M14
Malme-3M = system: Malme-3M
NCI-H23 = system: NCI-H23
OVCAR-3 = system: OVCAR-3
RXF 393 = system: RXF 393
SK-MEL-2 = system: SK-MEL-2
SK-OV-3 = system: SK-OV-3
SR = system: SR

Measured: GI50

CCCCC(C(=O)C(=O)NC1C2CC3CC(C2)CC1C3)C(=O)C(C)C (configuration not stated)
inactive: A549 > 100 µM | ACHN > 100 µM | CCRF-CEM > 100 µM | DMS-273 > 100 µM | HCT-116 > 100 µM | HL-60 > 100 µM | HOP-62 > 100 µM | HT-29 > 100 µM | LOX IMVI > 100 µM | LXFL 529 > 100 µM | M14 > 100 µM | Malme-3M > 100 µM | NCI-H23 > 100 µM | OVCAR-3 > 100 µM | RXF 393 > 100 µM | SK-MEL-2 > 100 µM | SK-OV-3 > 100 µM | SR > 100 µM

COC(=O)C(Cc1nc2ccccc2nc1O)C(=O)C(=O)Nc1ccc([N+](=O)[O-])cc1[N+](=O)[O-] (configuration not stated)
inactive: A549 34.1 µM | ACHN 18.2 µM | CCRF-CEM 13.2 µM | DMS-273 17.6 µM | HCT-116 21.2 µM | HL-60 21.8 µM | HOP-62 24.2 µM | HT-29 19.4 µM | LOX IMVI 20.9 µM | LXFL 529 12.8 µM | M14 17.8 µM | Malme-3M 19.3 µM | NCI-H23 18.7 µM | OVCAR-3 15.5 µM | RXF 393 18.3 µM | SK-MEL-2 20.7 µM | SK-OV-3 24.9 µM | SR 12 µM

c1ccc(C2=NOC3COc4ccccc4OCC23)cc1 (configuration not stated)
inactive: A549 > 100 µM | ACHN > 100 µM | CCRF-CEM > 100 µM | DMS-273 > 100 µM | HCT-116 > 100 µM | HL-60 89.5 µM | HOP-62 > 100 µM | HT-29 > 100 µM | LOX IMVI > 100 µM | LXFL 529 > 100 µM | M14 > 100 µM | Malme-3M > 100 µM | NCI-H23 > 100 µM | OVCAR-3 > 100 µM | RXF 393 > 100 µM | SK-MEL-2 > 100 µM | SK-OV-3 > 100 µM | SR > 100 µM

CC(=O)[O-].Cc1ncc(CO)c(/C=N/NC(N)=S)c1[O-].[Zn+2]
inactive: A549 > 100 µM | ACHN > 100 µM | CCRF-CEM > 100 µM | DMS-273 > 100 µM | HCT-116 > 100 µM | HL-60 > 100 µM | HOP-62 > 100 µM | HT-29 > 100 µM | LOX IMVI > 100 µM | LXFL 529 > 100 µM | M14 > 100 µM | Malme-3M > 100 µM | NCI-H23 > 100 µM | OVCAR-3 > 100 µM | RXF 393 > 100 µM | SK-MEL-2 > 100 µM | SK-OV-3 > 100 µM | SR > 100 µM

Reference: ChEMBL document CHEMBL1201862, “PubChem BioAssay data set” (2004)
